{"source": "patent US20100189701A1", "about": "“METHODS AND COMPOSITIONS TO TREAT ARRHYTHMIAS” (priority 2007, published 2010)", "key": {"[1]": {"system": "neonatal rat ventricular myocyte cultures", "experiment": "Conduction velocity in neonatal rat ventricular myocyte cultures on multi-electrode array", "format": "cell-based", "conditions": "K 5.4 to 10 mM"}, "neonatal myocytes": {"system": "neonatal myocytes", "experiment": "Action potential upstroke in neonatal myocytes under K depolarization", "format": "cell-based, rat", "description": "FIG. 49: Effect of K depolarization on action potential upstroke in neonatal myocytes in the absence and presence of SKM1 expression. […] The elevated K reduced the upstroke to 68% of its control value (mean value after elevated K is 56% of control). Bottom) In an SKM1 expressing myocyte the upstroke is better preserved, measuring 83% of its control value in elevated K.\nTop) In GFP but not SkM1 cultures there is a significant effect on CV of increasing K from 5.4 to 10 mM.\nAction potentials are recorded using a patch electrode in whole cell mode on cells superfused at 35° C. These experiments are conducted on monolayer cultures when studying control conditions or when employing viral expression, which achieves near uniform expression. For studying transfected cells, the culture is resuspended on the day of experiment and cells selected on the basis of GFP fluorescence, with the GFP being part of the channel vector or co-transfected with a separate vector. Extracellular and pipette solutions are as previously employed. The external solution contains (mM): NaCl 140, KCl 5.4, CaCl2 1, MgCl2 1, HEPES 5, glucose 10, adjusted to pH 7.4. The internal solution contains (mM): aspartic acid 130, KOH 146, NaCl10, CaCl2 2, EGTA 5, HEPES10, MgATP 2, adjusted to pH 7.2. […] Parameters recorded are Vmax, MDP, action potential amplitude (AMP) and APD50."}, "epicardial border zone": {"system": "epicardial border zone", "experiment": "Canine infarct epicardial border zone, electrograms and microelectrode study", "format": "in vivo, dog", "conditions": "5 d after infarct and injection"}, "hMSCs": {"system": "hMSCs", "experiment": "Patch clamp of hMSCs expressing SkM1 Na channel", "format": "cell-based, human", "conditions": "expressed in hMSCs", "excerpt": "Left: An hMSC transfected with SkM1 was held at potentials between −100 mV and −70 mV and pulsed to 0 mV. Since the current induced from −70 mV is > half the magnitude of the current induced from −100 mV the midpoint of inactivation was positive to −70 mV. Right: hMSCs were held at holding potentials between −100 and −55 mV for 1.5 sec and pulsed to 0 mV for 150 msec. The Boltzmann 2-state fit gives a midpoint of −62.4±3.2 mV and a slope factor of −10.3±3.2 mV.\nFor research on myocardial infarct-induced ventricular tachycardia, a Na channel gene with a more positive inactivation versus voltage relationship than found normally in cardiac myocytes was required. The skeletal muscle Na channel was investigated because of its reported midpoint of inactivation of −68 mV."}, "[2]": {"conditions": "cited from earlier work"}, "[3]": {"system": "neonatal myocyte cultures", "experiment": "Optical recording of CV and maximum pacing frequency in neonatal myocyte cultures", "format": "cell-based", "conditions": "high K (10.4 mM), vs GFP cultures", "description": "Adenoviral treated neonatal myocyte cultures expressed SkM1 or GFP and were studied in normal and high (10.4 mM) K. Left: The effectiveness of SkM1 expression to maintain high CV persists as pacing frequency increases.\nTo determine if the gating characteristics of the expressed channel allow this protective effect to persist at higher frequencies, as may occur during reentrant arrhythmias, CV restitution relations in myocyte cultures expressing SkM1 Na channels+GFP and in control cultures (expressing GFP alone) was studied. FIG. 53 illustrates that CV remains greater as frequency increases, both in normal Tyrode's solution and in elevated K solution. Further, in the absence of SkM1, the breakpoint frequency is reduced in high K."}}, "data": [{"substance": "SkM1: skeletal muscle sodium channel, expressed from gene in hMSCs or myocytes", "values": [{"measurement": "effect of membrane depolarization on CV and V′max", "setting": "[1]", "result": "significantly reduces CV and V′max of control cells, but not the SkM1 expressing cells"}, {"measurement": "Vmax", "setting": "neonatal myocytes; 10 K", "result": "> 100", "unit": "V/s"}, {"measurement": "action potential upstroke, % of control value", "setting": "neonatal myocytes; elevated K (10 mM) vs 5.4 mM", "result": 83, "unit": "%"}, {"measurement": "electrogram at injected epicardial border zone site", "setting": "epicardial border zone", "result": "narrow spike"}, {"measurement": "Vmax, injected site 1 vs non-injected site 2", "setting": "epicardial border zone; equivalent membrane depolarization", "result": "nearly twice that of site 2"}, {"measurement": "midpoint of inactivation", "setting": "hMSCs", "result": "−62.4±3.2", "unit": "mV"}, {"measurement": "Slope factor", "setting": "hMSCs; Boltzmann 2-state fit", "result": "−10.3±3.2", "unit": "mV"}, {"measurement": "midpoint of inactivation", "setting": "hMSCs; listed as skeletal muscle Na channel", "result": "−62", "unit": "mV"}, {"measurement": "midpoint of inactivation", "setting": "hMSCs; listed as skeletal muscle sodium channel", "result": "−62", "unit": "mV"}, {"measurement": "inactivation midpoint", "setting": "[2]; as stated in Example 16 group description", "result": "−65", "unit": "mV"}, {"measurement": "activation midpoint", "setting": "[2]; as worded", "result": "−68", "unit": "mV"}, {"measurement": "Slope factor", "setting": "[2]; steady state inactivation", "result": "−5.4", "unit": "mV"}, {"measurement": "break-point frequency (resistance to rhythm instabilities)", "setting": "[3]", "result": "higher break-point frequencies"}]}]}
